Reference: patent US20060051358A1, “Immune response assessment method” (Baylor Research Institute, priority 2004, published 2006)

Columns and labels:
Type in all cases: cell-based, human
[1] = system: PBMCs from a patient with Type 1 diabetes; experiment: EPIMAX: PBMC culture with IA-2 15-mer peptides, type-1 diabetic patient; details: fresh PBMCs 5×10^5 cells/well, single 15-mer IA-2 peptides, 48 h
Method: FIG. 43 is a graph that depicts the immune response of a type-1 diabetic patient as evaluated according to the present invention. PBMCs were obtained from a patient with Type 1 diabetes taking immunosuppressive drugs, such as Cellcept and Predonisolone. The fresh PBMCs (5×10^5 cells/well) were stimulated with single 15-mer peptides encoding IA-2, one of the auto-antigens specifically expressed on pancreatic β-islet cells. The levels of IP-10 at 48 h of culture are shown.

[2] = system: T cells in melanoma patient PBMCs; experiment: Intracellular cytokine detection assay (flow cytometry)
Method: FIG. 12A is a graph that depicts the immune response of a melanoma patient as evaluated according the present invention. PBMCs obtained before DC vaccination and post 8 DC vaccinations from a melanoma patient (same as FIG. 10) were stimulated with single 15-mer MART-1 peptides or diluent. The levels of IL-1a and IP-10 in the culture supernatants at 48 h of culture are shown. […] To examine this hypothesis, we used a different well-established methodology, intracellular cytokine detection assay. The same PBMCs were stimulated for 8 h with MART-1 15-mer single peptides in the presence of anti-CD28/CD49d mAb and monensin. After permeabilization of the cell membrane, the cells were stained with anti-IFN-γ mAb and the IFN-γ+ populations were analyzed with a flowcytometer (FIG. 12B).
The same patient's PBMCs were stimulated for 8 hours with MART-1 15-mer peptide#10 in the presence of antiCD28/CD49d mAb and monensin. The production of IL-2 were analyzed by staining with specific mAbs.
The same patient's PBMCs were stimulated for 8 hours with MART-1 15-mer peptide#11 in the presence of antiCD28/CD49d mAb and monensin. The production of IL-5 were analyzed by staining with specific mAbs.
(§1) FIGS. 29A-D are graphs that depict the immune response of a melanoma patients as evaluated according the present invention. PBMCs obtained from a melanoma patient were stimulated with clusters of peptides or individual peptides encoding NY-ESO1. IL-10 levels in culture supernatant at 48 hours of culture are shown (FIG. 29A). […] To explore the origin of IL-10 production, the PBMCs were stimulated with peptide#39 in the presence of anti CD28/CD49d mAbs and monensin for 8 hours, and stained with IL-10 specific mAb. […] Next, to evaluate whether this IL-10 producing T cells had regulatory properties, PBMCs stimulated with peptide #39 or irrelevant 15-mer peptide were added in transwells to a “third party” MLR to test suppression of T cell expansion by the release of soluble mediators. The MLR used CFSE-labeled CD4^+T cells and allogeneic mature DCs, both from healthy volunteers, in order to avoid the effect of peptide-specific T cell response.

[3] = system: PBMCs obtained from melanoma patients; experiment: EPIMAX: PBMC culture with peptides or peptide clusters, multiplex bead cytokine assay (Luminex)
[4] = system: CD4+ / CD8+ T cells in melanoma patient PBMCs; experiment: CFSE dilution T cell proliferation assay, melanoma patient PBMCs; details: for proliferation: epitopes for Th0, Th1, Th2 cells
Excerpt: FIG. 13 depicts the immune response of a melanoma patient as evaluated according the present invention. CFSE (5,6-carboxyfluorescein diacetate succinimidyl ester) is a tracer dye that permits to identify the number of cell division with a flowcytometer. As EPIMAX is a non-destructive assay, we combined with EPIMAX and CFSE technology to determine the proliferative capacity of antigen-specific T cells. […] PBMCs obtained from the same melanoma patient (same as FIG. 10) were first stained with 1 uM of CFSE, and stimulated with either clusters of overlapping peptides or individual peptides encoding MART-1. On day 8 of culture, the cells were stained with CD8-PE, CD3-PerCP, and CD4-APC, and analyzed T cell proliferation in response to peptide stimulation.
(§2) FIG. 14 depicts the immune response of a melanoma patient as evaluated according the present invention. PBMCs obtained from the same melanoma patient (same as FIG. 10) were first stained with 1 μM of CFSE, and stimulated with individual peptides encoding MART-1 in triplicates. On day 8 of culture, the cells were stained with CD8-PE, CD3-PerCP, and CD4-APC, and analyzed T cell proliferation in response to peptide stimulation.
as §2, with “FIGS. 21A-B” for “FIG. 14”, “19)” for “10)”, “stimulation. […] FIG. 21B depicts the CFSE-diluted CD4+ T cell populations in response to each MART-1 15-mer peptide within the CD4^+ T cell population.” for “stimulation.”
FIGS. 22 A-C depicts the immune response of a melanoma patient as evaluated according the present invention. PBMCs obtained from a HLA-A2^neg melanoma patient who received DC vaccinations were first stained with 1 μM of CFSE, and stimulated with clusters of peptides encoding NY-ESO1. On day 8 of culture, the cells were stained with CD8-PE, CD3-PerCP, and CD4-APC, and analyzed T cell proliferation in response to peptide stimulation was analyzed based on CFSE dilution with a flowcytometer. […] FIG. 22B depicts the IL-2 levels in the culture supernatant at 48 hours of culture. […] To identify the epitope for CD4+ T cells, CFSE-stained PBMCs were stimulated with individual peptides within NY-ESO1 cluster#8. The proliferating CD4+ T cells were analyzed based on CFSE dilution with a flowcytometer on day 8.

[5] = system: CFSE-labeled CD4+ T cells and allogeneic mature DCs; experiment: Third party MLR suppression assay in transwells; details: patient's PBMC stimulated with peptide added in transwells
Method: as §1

[6] = system: CD4+ / CD8+ T cells in melanoma patient PBMCs; experiment: CFSE dilution T cell proliferation assay, melanoma patient PBMCs; details: epitopes for Th0, Th1, Th2 cells; patient 094-012, Post
[7] = epitopes for Th0, Th1, Th2 cells, patient 094-012, Post

## IA-2 peptide#47: 15-mer peptide encoding IA-2, residues 789-803 (HTIADFWQMVWESGC; UniProt Q16849 789-803, looked up, fragment)
[1]
  IP-10 production: induced upregulation of IP-10 production

## IA-2 peptide#60: 15-mer peptide encoding IA-2, residues 841-855 (SEHIWCEDFLVRSFY; UniProt Q16849 841-855, looked up, fragment)
[1]
  IP-10 production: induced upregulation of IP-10 production

## IA-2 peptide#61: 15-mer peptide encoding IA-2, residues 845-859 (WCEDFLVRSFYLKNV; UniProt Q16849 845-859, looked up, fragment)
[1]
  IP-10 production: induced upregulation of IP-10 production

## IA-2 peptide#62: 15-mer peptide encoding IA-2, residues 849-863 (FLVRSFYLKNVQTQE; UniProt Q16849 849-863, looked up, fragment)
[1]
  IP-10 production: induced upregulation of IP-10 production

## IA-2 peptide#64: 15-mer peptide encoding IA-2, residues 857-871 (KNVQTQETRTLTQFH; UniProt Q16849 857-871, looked up, fragment)
[1]
  IP-10 production: induced upregulation of IP-10 production

## IA-2 peptide#66: 15-mer peptide encoding IA-2, residues 865-879 (RTLTQFHFLSWPAEG; UniProt Q16849 865-879, looked up, fragment)
[1]
  IP-10 production: induced upregulation of IP-10 production

## MART-1 p13: 15-mer of MART-1 overlapping peptide library, residues 49-63 (RRRNGYRALMDKSLH; UniProt Q16655 49-63, looked up, fragment)
[2]; Post-PBMC, 8 h stimulation with anti-CD28/CD49d mAb and monensin
  CD8+ T cells producing IFN-g: about 0.15%
[2]; Pre-PBMC, 8 h stimulation with anti-CD28/CD49d mAb and monensin
  IFN-g production by CD8+ T cells: no IFN-g production was detected
[3]; epitopes for CD8+ T cells, patient 094-009, Post
  Type of response: 1
[3]; melanoma patient after DC vaccination series (FIG. 10), MART-1 library, 48 h
  IL-1a and IP-10 levels; cluster analysis and epitope focusing: identified as epitopes for specific T cells
[3]; same patient as FIG. 10, Post-PBMC (post 8 DC vaccinations), 48 h
  IL-1a and IP-10 levels: showed upregulation of IL-1a and IP-10
[3]; same patient as FIG. 10, Pre-PBMC (before DC vaccination), 48 h
  IL-1a and IP-10 levels: failed upregulation of IL-1a and IP-10
[3]; same patient as FIG. 10, thawed PBMC, experiment repeated three times, 48 h
  IL-1a and IP-10 levels, reproducibility: Three out of 3 experiments revealed upregulation of IL-1a and IP-10
[4]; same patient as FIG. 10, day 8 of culture
  CD8+ T cell proliferation (CFSE dilution): induced dilution of CFSE intensity in some CD8+ T cell populations

## NY-ESO1 p39: 15-mer of NY-ESO1 library, residues 153-167 (LQQLSLLMWITQCFL; UniProt P78358 153-167, looked up, fragment)
[2]; 8 hours with anti CD28/CD49d mAbs and monensin
  CD4+ T cells producing IL-10: about 0.11%
[3]; epitopes for CD8+ T cells, patient 094-007, Post
  Type of response: 1
[3]; epitopes for CD8+ T cells, patient 094-007, Pre
  Type of response: 1
[5]
  proliferation in third party MLR: significantly suppressed proliferation in the MLR

## gp100 p32: 15-mer of gp100 library, residues 125-139 (ETDDACIFPDGGPCP; UniProt P40967 125-139, looked up, fragment)
[3]; [7]
  Type of response: 2
[6]
  proliferation: Yes

## gp100 p40: 15-mer of gp100 library, residues 157-171 (GQYWQVLGGPVSGLS; UniProt P40967 157-171, looked up, fragment)
[3]; [7]
  Type of response: 2
[6]
  proliferation: Yes

## gp100 p71: 15-mer of gp100 library, residues 281-295 (LEPGPVTAQVVLQAA; UniProt P40967 281-295, looked up, fragment)
[3]; [7]
  Type of response: 2
[6]
  proliferation: Yes

## gp100 p78: 15-mer of gp100 library, residues 309-323 (TTDGHRPTAEAPNTT; UniProt P40967 309-323, looked up, fragment)
[3]; [7]
  Type of response: 2
[6]
  proliferation: Yes

## gp100 p152: 15-mer of gp100 library, residues 605-619 (VLMAVVLASLIYRRR; UniProt P40967 605-619, looked up, fragment)
[3]; epitopes for Th0, Th1, Th2 cells, patient 094-009, Post
  Type of response: 0
[3]; [7]
  Type of response: 2
[3]; epitopes for Th0, Th1, Th2 cells, patient 094-015, Post
  Type of response: 0
[3]; two melanoma patients, peptides of TRP-1 cluster#25 or gp100 cluster#15
  CD4+ T cell epitope identification (cytokines at 48 h, CFSE dilution day 8): are epitopes for CD4^+ T cells
[6]
  proliferation: Yes
[4]; patient 094-009, Post
  proliferation: Yes
[4]; patient 094-015, Post
  proliferation: Yes
